Laboratory results as given in patent US20090105217A1, “2-PHENYL-5-AMINO-1,3,4-OXADIAZOLES AND THEIR USE AS NICOTINIC ACETYLCHOLINE RECEPTOR LIGANDS” (priority 2007, published 2009).
Structures can show the parent of a compound that is named as a salt.

Target: T1, human α7 nAChR (Homo sapiens, UniProt P36544)
T1 construct: host or cells: GH4C1 cells (pituitary tumor, immortalized cell line)
Assay: α7 nAChR FLIPR (Fluorometric Imaging Plate Reader) Ca2+ assay, agonist EC50
Type: cell-based
Settings: for EC50: GH4C1 cells stably transfected with human α7 nAChR, Fluo-4 Ca2+ fluorescence, Examples 194 to 205 tested as the HCl salt, read-out: pEC50 value (negative logarithm of the agonist EC50) (converted)
Protocol: α7 nAChR FLIPR® (Fluorometric Imaging Plate Reader) Assay
Function of the heterologous expressed α7 nAChR was assessed by a FLIPR-Ca^2+ assay. Since nAChRs are non-selective cation channels with high permeability to Ca^2+, these studies were carried out by measuring changes of intracellular Ca^2+ concentration using the Ca^2+-chelating fluorescent dye Fluo-4 and FLIPR® (Fluorometric Imaging Plate Reader) technology.
GH4C1cells (pituitary tumor, immortalized cell line) stably transfected with human α7 nAChR (Biocat ID 96986), were thawed, suspended in growth medium (Ham's Nutrient Mixture F10—Ham's F10, Invitrogen 31550-023, 15% Horse Serum heat inactivated—Invitrogen 26050-047, 2.5% Foetal Bovine Serum—FBS, Gibco 10500-064, 200 μg/ml Hygromycin B—Invitrogen, 10687-010, 10 mg/L Phenol Red—Sigma, P 0290, 1 mM Glutamine—Invitrogen, 25030-024) and plated in 500 cm^2 Triple Flask.
Cells were then incubated at 30° C., 5% CO2 for 72 hours.
On the day of the experiment, cells were washed twice with Assay Buffer (AB) (145 mM NaCl, 5 mM KCl, 1 mM MgCl2, 2 mM CaCl2, 20 mM HEPES, 5.5 mM Glucose pH=7.3) containing 2.5 mM Probenecid. Changes in the intracellular Ca^2+ content of stably transfected cells were measured using the Ca^2+ chelating dye Fluo-4 (Tef Labs 0152) in conjunction with a FLIPR® (Molecular Devices). The cell permeant dye Fluo-4 was prepared to a concentration of 1 mM in 100% DMSO and 10% Pluronic acid. The dye was then diluted with AB to a final concentration of 2 μM and placed on the cells. After 45-60 minutes dye loading incubation at 37° C., the unincorporated dye was removed from the cells by washing (80 μL, 3 times) with AB, and a final volume of 30 μL/well of AB was left in each well.
Plates containing test compounds (dissolved in 100% DMSO at 2 mM and serially diluted with DMSO) were copied into “daughter” plates (1 μL/well dispensation). Just prior to starting the assay, the “daughter” plate was diluted with 50 μL/well of AB.
The plates were then placed in the FLIPR®, and cell fluorescence was determined before drug addition (30 seconds) and monitored (excitation 488 nm, emission 510-580 nm) immediately following exposure to compounds. Maximum fluorescence values were recorded and fitted for agonist EC50 calculations.
The results are expressed as pEC50 values. A pEC50 is the negative logarithm of the agonist EC50 calculation as determined in the α7 nAChR FLIPR® assay. […] Variations in pEC50 may arise between tests.

T1 sequence (P36544 23-502): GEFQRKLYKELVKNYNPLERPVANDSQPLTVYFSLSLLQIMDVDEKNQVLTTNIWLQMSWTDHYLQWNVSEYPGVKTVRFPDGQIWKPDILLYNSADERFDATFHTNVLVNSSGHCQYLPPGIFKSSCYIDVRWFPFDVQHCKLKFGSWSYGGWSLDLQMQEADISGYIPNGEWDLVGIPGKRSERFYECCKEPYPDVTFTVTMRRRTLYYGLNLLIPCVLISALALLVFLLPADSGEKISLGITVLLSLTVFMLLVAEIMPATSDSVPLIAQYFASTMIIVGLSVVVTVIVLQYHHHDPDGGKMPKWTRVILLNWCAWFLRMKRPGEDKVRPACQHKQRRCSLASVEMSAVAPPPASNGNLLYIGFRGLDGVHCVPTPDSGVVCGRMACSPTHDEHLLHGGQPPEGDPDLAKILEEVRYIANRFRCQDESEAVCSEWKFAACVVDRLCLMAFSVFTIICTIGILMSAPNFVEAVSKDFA

`COc1cc(NC(=O)C2CCCC2)ccc1-c1nnc(NCCCN2CCOCC2)o1` [Example 234, N-[3-(methyloxy)-4-(5-{[3-(4-morpholinyl)propyl]amino}-1,3,4-oxadiazol-2-yl)phenyl]cyclopentane-carboxamidetrifluoroacetate] was tested, and the EC50 was no more than 1 µM.

In the case of `O=C(Nc1ccc(-c2nnc(NCCCN3CCN4CCC3CC4)o2)c(F)c1)c1ccccc1F` [Example 121, N-[4-(5-{[3-(1,4-diazabicyclo[3.2.2]non-4-yl)propyl]amino}-1,3,4-oxadiazol-2-yl)-3-fluorophenyl]-2-fluorobenzamide], the EC50 was no more than 0.1 µM.

`O=C(Nc1ccc(-c2nnc(NCCCCN3CCCC3)o2)c(C(F)(F)F)c1)c1ccccc1` [Example 92, N-[4-(5-{[4-(1-pyrrolidinyl)butyl]amino}-1,3,4-oxadiazol-2-yl)-3-(trifluoromethyl)phenyl]benzamide] showed an EC50 of no more than 0.1 µM.

Compound `CCN(CC)CCCNc1nnc(-c2ccc(NC(=O)c3ccccc3F)cc2F)o1` [Example 50, N-[4-(5-{[3-(diethylamino)propyl]amino}-1,3,4-oxadiazol-2-yl)-3-fluorophenyl]-2-fluorobenzamide] has an EC50 of no more than 1 µM.

For `O=C(Nc1ccc(-c2nnc(NCCCCN3CCCCC3)o2)c(Cl)c1)c1ccccc1` [Example 106, N-[3-chloro-4-(5-{[4-(1-piperidinyl)butyl]amino}-1,3,4-oxadiazol-2-yl)phenyl]benzamide], the EC50 was no more than 0.1 µM.

`CCN(CC)CCCCNc1nnc(-c2ccc(NC(=O)c3ccccc3F)cc2OC)o1` [Example 52, N-[4-(5-{[4-(diethylamino)butyl]amino}-1,3,4-oxadiazol-2-yl)-3-(methyloxy)phenyl]-2-fluorobenzamide] gave an EC50 of no more than 0.1 µM.

For `O=C(Nc1ccc(-c2nnc(NCCCCN3CCC(F)CC3)o2)c(F)c1)c1ccccc1F` [Example 26, 2-Fluoro-N-[3-fluoro-4-(5-{[4-(4-fluoro-1-piperidinyl)butyl]amino}-1,3,4-oxadiazol-2-yl)phenyl]benzamide], the EC50 was no more than 0.1 µM.

Work on `O=C(Nc1ccc(-c2nnc(NCCCCN3CCCC3)o2)c(F)c1)C1CCCCC1` [Example 55, N-[3-fluoro-4-(5-{[4-(1-pyrrolidinyl)butyl]amino}-1,3,4-oxadiazol-2-yl)phenyl]cyclohexanecarboxamide] yielded an EC50 of no more than 0.1 µM.

`O=C(Nc1ccc(-c2nnc(NCCCCN3CCCC3)o2)c(F)c1)c1ccccc1F` [Example 48, 2-fluoro-N-[3-fluoro-4-(5-{[4-(1-pyrrolidinyl)butyl]amino}-1,3,4-oxadiazol-2-yl)phenyl]benzamide] gave an EC50 of no more than 0.1 µM.

For `O=C(Nc1ccc(-c2nnc(NCCCCN3CCCCC3)o2)c(F)c1)C1CCCCC1` [Example 54, N-[3-fluoro-4-(5-{[4-(1-piperidinyl)butyl]amino}-1,3,4-oxadiazol-2-yl)phenyl]cyclohexanecarboxamide], the EC50 was no more than 0.1 µM.

In the case of `CN(C)CCCN(C)c1nnc(-c2ccc(NC(=O)c3ccccc3F)cc2)o1` [N-(4-{5-[[3-(dimethylamino)propyl](methyl)amino]-1,3,4-oxadiazol-2-yl}phenyl)-2-fluorobenzamide], the “activity in the alpha 7 assay” value (alpha 7 assay described in the Examples) was “not found to have activity”.

For `O=C(Nc1ccc(-c2nnc(NCCCCN3CCOCC3)o2)c(C(F)(F)F)c1)C1CCCCC1` [Example 66, N-[4-(5-{[4-(4-morpholinyl)butyl]amino}-1,3,4-oxadiazol-2-yl)-3-(trifluoromethyl)phenyl]cyclohexanecarboxamide], the EC50 was no more than 1 µM.

`CCN(CC)CCCCNc1nnc(-c2ccc(NC(=O)c3ccccc3F)cc2F)o1` [Example 51, N-[4-(5-{[4-(diethylamino)butyl]amino}-1,3,4-oxadiazol-2-yl)-3-fluorophenyl]-2-fluorobenzamide] showed an EC50 of no more than 1 µM.

Compound `O=C(Nc1ccc(-c2nnc(NCCCN3CCCCC3)o2)cc1)C1CCOCC1` [Example 193, N-[4-(5-{[3-(1-piperidinyl)propyl]amino}-1,3,4-oxadiazol-2-yl)phenyl]tetrahydro-2H-pyran-4-carboxamide] has an EC50 of no more than 1 µM.

Compound `O=C(Nc1ccc(-c2nnc(NCCCN3CCN4CCC3CC4)o2)cc1)c1ccccc1` [Example 123, N-[4-(5-{[3-(1,4-diazabicyclo[3.2.2]non-4-yl)propyl]amino}-1,3,4-oxadiazol-2-yl)phenyl]benzamide] has an EC50 of no more than 0.1 µM.

`O=C(Nc1ccc(-c2nnc(NCCCN3CCCC3)o2)c(C(F)(F)F)c1)C1CCCCC1` [Example 63, N-[4-(5-{[3-(1-pyrrolidinyl)propyl]amino}-1,3,4-oxadiazol-2-yl)-3-(trifluoromethyl)phenyl]cyclohexanecarboxamide] gave an EC50 of no more than 1 µM.

`CCN(CC)CCCNc1nnc(-c2ccc(NC(=O)c3ccccc3)cc2)o1` [Example 118, N-[4-(5-{[3-(diethylamino)propyl]amino}-1,3,4-oxadiazol-2-yl)phenyl]benzamide] showed an EC50 of no more than 1 µM.

With `O=C(Nc1ccc(-c2nnc(NCCCCN3CCCC3)o2)c(Cl)c1)c1ccccc1` [Example 100, N-[3-chloro-4-(5-{[4-(1-pyrrolidinyl)butyl]amino}-1,3,4-oxadiazol-2-yl)phenyl]benzamide] the EC50 was no more than 0.1 µM.

In the case of `O=C(Nc1ccc(-c2nnc(NCCCN3CCN4CCC3CC4)o2)c(F)c1)c1ccccc1` [Example 124, N-[4-(5-{[3-(1,4-diazabicyclo[3.2.2]non-4-yl)propyl]amino}-1,3,4-oxadiazol-2-yl)-3-fluorophenyl]benzamide], the EC50 was no more than 0.1 µM.

`O=C(Nc1ccc(-c2nnc(NCCCCN3CCCC3)o2)c(F)c1)c1ccccc1` [Example 108, N-[3-fluoro-4-(5-{[4-(1-pyrrolidinyl)butyl]amino}-1,3,4-oxadiazol-2-yl)phenyl]benzamide] was tested, and the EC50 was no more than 0.1 µM.

Compound `O=C(Nc1ccc(-c2nnc(NCCCN3CCCCC3)o2)cc1)c1cccc(Cl)c1` [Example 12, 3-Chloro-N-[4-(5-{[3-(1-piperidinyl)propyl]amino}-1,3,4-oxadiazol-2-yl)phenyl]benzamidehydrochloride] has an EC50 of no more than 1 µM.

With `COc1cc(NC(=O)c2cccc(F)c2)ccc1-c1nnc(NCCCN2CCOCC2)o1` [Example 204, 3-Fluoro-N-[3-(methyloxy)-4-(5-{[3-(4-morpholinyl)propyl]amino}-1,3,4-oxadiazol-2-yl)phenyl]benzamide] the EC50 was no more than 1 µM.

`O=C(Nc1ccc(-c2nnc(NCCCN3CCCCC3)o2)c(Cl)c1)C1CCCCC1` [Example 163, N-[3-chloro-4-(5-{[3-(1-piperidinyl)propyl]amino}-1,3,4-oxadiazol-2-yl)phenyl]cyclohexanecarboxamide] showed an EC50 of no more than 1 µM.

`O=C(Nc1ccc(-c2nnc(NCCCCN3CCOCC3)o2)cc1)C1CCCCC1` [Example 148, N-[4-(5-{[4-(4-morpholinyl)butyl]amino}-1,3,4-oxadiazol-2-yl)phenyl]cyclohexanecarboxamide] was tested, and the EC50 was no more than 1 µM.

Work on `CN1CCCN(CCCNc2nnc(-c3ccc(NC(=O)c4ccccc4F)cc3)o2)CC1` [Example 174, 2-fluoro-N-[4-(5-{[3-(4-methylhexahydro-1H-1,4-diazepin-1-yl)propyl]amino}-1,3,4-oxadiazol-2-yl)phenyl]benzamide] yielded an EC50 of no more than 1 µM.

In the case of `O=C(Nc1ccc(-c2nnc(NCCCCN3CCCC3)o2)c(Cl)c1)c1ccccc1F` [Example 153, N-[3-chloro-4-(5-{[4-(1-pyrrolidinyl)butyl]amino}-1,3,4-oxadiazol-2-yl)phenyl]-2-fluorobenzamide], the EC50 was no more than 0.1 µM.

`O=C(Nc1ccc(-c2nnc(NCCCCN3CCOCC3)o2)c(F)c1)C1CCCCC1` [Example 58, N-[3-fluoro-4-(5-{[4-(4-morpholinyl)butyl]amino}-1,3,4-oxadiazol-2-yl)phenyl]cyclohexanecarboxamide] was tested, and the EC50 was no more than 1 µM.

Compound `CCN(CC)CCCNc1nnc(-c2ccc(NC(=O)c3cccc(F)c3)cc2OC)o1` [Example 203, N-[4-(5-{[3-(Diethylamino)propyl]amino}-1,3,4-oxadiazol-2-yl)-3-(methyloxy)phenyl]-3-fluorobenzamide] has an EC50 of no more than 1 µM.

`O=C(Nc1ccc(-c2nnc(NCCCN3CCCC3)o2)c(F)c1)C1CCCCC1` [Example 56, N-[3-fluoro-4-(5-{[3-(1-pyrrolidinyl)propyl]amino}-1,3,4-oxadiazol-2-yl)phenyl]cyclohexanecarboxamide] gave an EC50 of no more than 1 µM.

`CCCC(=O)Nc1ccc(-c2nnc(NCCCN(CC)CC)o2)c(OC)c1` [Example 200, N-[4-(5-{[3-(Diethylamino)propyl]amino}-1,3,4-oxadiazol-2-yl)-3-(methyloxy)phenyl]butanamide] gave an EC50 of no more than 1 µM.
